According to US20230391768A2, “IMIDAZOPYRIDINE DERIVATIVES AND AZA-IMIDAZOPYRIDINE DERIVATIVES AS JANUS KINASE 2 INHIBITORS AND USES THEREOF” (Dana-Farber Cancer Institute, Inc., priority 2018, published 2023):

Legend:
Experiment in all cases: KINOMEscan
Assay type in all cases: binding
ABL1-nonphosphorylated = ABL1-nonphosphorylated (Homo sapiens (Human), UniProt P00519); settings: read-out: percent of control
Description: (§1) In vitro profiling of Compound I-2 (1 μM) was performed using the DiscoveRx KINOMEscan® platform.

ALK(C1156Y) = ALK(C1156Y) (Homo sapiens (Human), UniProt Q9UM73, C1156Y); settings: read-out: percent of control
Description: as §1

BIKE = BIKE (Homo sapiens (Human), UniProt Q9NSY1); settings: read-out: percent of control
Description: as §1

BRAF = BRAF (Homo sapiens (Human), UniProt P15056); settings: read-out: percent of control
Description: as §1

CAMKK1 = CAMKK1 (Homo sapiens (Human), UniProt Q8N5S9); settings: read-out: percent of control
Description: as §1

CDK11 = CDK11 (Homo sapiens (Human), UniProt Q9BWU1); settings: read-out: percent of control
Description: as §1

CLK4 = CLK4 (Homo sapiens (Human), UniProt Q9HAZ1); settings: read-out: percent of control
Description: as §1

CSNK1A1 = CSNK1A1 (Homo sapiens (Human), UniProt P48729); settings: read-out: percent of control
Chain of CSNK1A1 (P48729 whole entry): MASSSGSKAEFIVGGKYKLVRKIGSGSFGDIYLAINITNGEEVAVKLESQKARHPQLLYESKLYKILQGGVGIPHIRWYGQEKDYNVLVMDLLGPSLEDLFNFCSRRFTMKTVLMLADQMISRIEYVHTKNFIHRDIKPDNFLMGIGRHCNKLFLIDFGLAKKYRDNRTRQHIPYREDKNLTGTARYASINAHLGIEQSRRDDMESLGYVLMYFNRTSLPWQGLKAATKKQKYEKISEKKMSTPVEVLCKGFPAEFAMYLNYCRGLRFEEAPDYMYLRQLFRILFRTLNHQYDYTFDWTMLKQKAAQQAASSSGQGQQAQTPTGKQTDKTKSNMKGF
Description: as §1

CSNK1E = CSNK1E (Homo sapiens (Human), UniProt P49674); settings: read-out: percent of control
Description: as §1

CSNK1G1 = CSNK1G1 (Homo sapiens (Human), UniProt Q9HCP0); settings: read-out: percent of control
Description: as §1

CSNK1G3 = CSNK1G3 (Homo sapiens (Human), UniProt Q9Y6M4); settings: read-out: percent of control
Description: as §1

CTK = CTK (Homo sapiens (Human), UniProt P42679); settings: read-out: percent of control
Description: as §1

DDR1 = DDR1 (Homo sapiens (Human), UniProt Q08345); settings: read-out: percent of control
Description: as §1

DYRKIA = DYRKIA (Homo sapiens (Human), UniProt Q13627); settings: read-out: percent of control
Description: as §1

EGFR(L747-T751del,Sins) = settings: 1 μM
Description: as §1

EIF2AK1 = EIF2AK1 (Homo sapiens (Human), UniProt Q9BQI3); settings: read-out: percent of control
Chain of EIF2AK1 (Q9BQI3 whole entry): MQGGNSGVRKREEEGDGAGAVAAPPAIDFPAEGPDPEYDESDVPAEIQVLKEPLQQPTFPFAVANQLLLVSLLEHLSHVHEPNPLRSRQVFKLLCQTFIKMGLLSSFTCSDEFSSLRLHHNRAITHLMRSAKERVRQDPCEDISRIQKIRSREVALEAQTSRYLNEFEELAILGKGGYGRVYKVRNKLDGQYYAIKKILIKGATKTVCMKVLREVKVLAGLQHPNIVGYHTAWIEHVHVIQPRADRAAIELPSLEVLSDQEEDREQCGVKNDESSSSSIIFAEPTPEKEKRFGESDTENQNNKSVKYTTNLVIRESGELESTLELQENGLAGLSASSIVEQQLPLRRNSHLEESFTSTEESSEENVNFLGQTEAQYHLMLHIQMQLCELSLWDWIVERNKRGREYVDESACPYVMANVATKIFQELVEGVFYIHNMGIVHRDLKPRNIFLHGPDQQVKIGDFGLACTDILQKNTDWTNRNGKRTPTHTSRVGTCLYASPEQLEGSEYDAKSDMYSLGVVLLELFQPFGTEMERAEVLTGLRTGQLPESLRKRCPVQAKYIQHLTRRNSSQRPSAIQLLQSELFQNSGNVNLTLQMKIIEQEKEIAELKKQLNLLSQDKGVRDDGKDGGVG
Description: as §1

EPHB4 = EPHB4 (Homo sapiens (Human), UniProt P54760); settings: read-out: percent of control
Description: as §1

ERN1 = ERN1 (Homo sapiens (Human), UniProt O75460); settings: read-out: percent of control
Description: as §1

FGFR4 = FGFR4 (Homo sapiens (Human), UniProt P22455); settings: read-out: percent of control
Description: as §1

[1] = molecular target: JAK3(JH1domain-catalytic) (Homo sapiens (Human), UniProt P52333); settings: for remaining binding at 1 µM: JAK3(JH1domain-catalytic), read-out: percent of control
Chain of JAK3(JH1domain-catalytic) (P52333 822-1111): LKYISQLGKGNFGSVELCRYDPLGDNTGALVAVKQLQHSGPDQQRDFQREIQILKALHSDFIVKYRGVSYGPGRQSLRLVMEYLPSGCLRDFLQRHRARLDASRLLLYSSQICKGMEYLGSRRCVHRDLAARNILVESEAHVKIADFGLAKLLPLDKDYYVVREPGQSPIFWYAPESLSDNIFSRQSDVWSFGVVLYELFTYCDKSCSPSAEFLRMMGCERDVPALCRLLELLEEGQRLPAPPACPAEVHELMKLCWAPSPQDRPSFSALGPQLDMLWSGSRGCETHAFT
Description: as §1

MAP4K3 = MAP4K3 (Homo sapiens (Human), UniProt Q8IVH8); settings: read-out: percent of control
Chain of MAP4K3 (Q8IVH8 whole entry): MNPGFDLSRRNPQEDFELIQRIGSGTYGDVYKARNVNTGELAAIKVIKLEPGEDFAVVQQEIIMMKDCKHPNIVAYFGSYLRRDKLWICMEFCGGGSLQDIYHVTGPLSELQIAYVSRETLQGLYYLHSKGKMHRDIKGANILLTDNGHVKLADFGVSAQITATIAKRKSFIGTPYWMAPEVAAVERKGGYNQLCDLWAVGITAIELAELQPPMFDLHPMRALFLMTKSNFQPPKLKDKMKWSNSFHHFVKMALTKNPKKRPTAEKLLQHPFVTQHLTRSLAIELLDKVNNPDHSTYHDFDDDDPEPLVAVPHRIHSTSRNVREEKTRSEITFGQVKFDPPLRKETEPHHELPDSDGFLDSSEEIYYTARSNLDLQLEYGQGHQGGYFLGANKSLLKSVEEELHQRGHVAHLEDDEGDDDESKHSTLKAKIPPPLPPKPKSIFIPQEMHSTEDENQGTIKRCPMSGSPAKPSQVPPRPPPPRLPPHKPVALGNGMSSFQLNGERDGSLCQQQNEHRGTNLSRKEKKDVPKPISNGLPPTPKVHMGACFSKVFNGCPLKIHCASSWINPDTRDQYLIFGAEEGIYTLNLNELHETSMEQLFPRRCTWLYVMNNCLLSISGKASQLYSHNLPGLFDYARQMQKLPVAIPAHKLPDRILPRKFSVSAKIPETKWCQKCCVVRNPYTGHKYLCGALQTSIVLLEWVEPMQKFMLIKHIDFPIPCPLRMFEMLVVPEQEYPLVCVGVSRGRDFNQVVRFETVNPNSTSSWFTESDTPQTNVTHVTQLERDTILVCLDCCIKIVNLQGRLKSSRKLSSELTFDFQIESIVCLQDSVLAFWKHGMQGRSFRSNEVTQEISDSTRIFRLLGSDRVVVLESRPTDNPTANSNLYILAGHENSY
Description: as §1

MET(Y1235D) = MET(Y1235D) (Homo sapiens (Human), UniProt P08581, Y1235D); settings: read-out: percent of control
Description: as §1

OSR1 = OSR1 (Homo sapiens (Human), UniProt O95747); settings: read-out: percent of control
Description: as §1

PAK3 = PAK3 (Homo sapiens (Human), UniProt O75914); settings: read-out: percent of control
Description: as §1

PAK7 = PAK7 (Homo sapiens (Human), UniProt Q9P286); settings: read-out: percent of control
Chain of PAK7 (Q9P286 whole entry): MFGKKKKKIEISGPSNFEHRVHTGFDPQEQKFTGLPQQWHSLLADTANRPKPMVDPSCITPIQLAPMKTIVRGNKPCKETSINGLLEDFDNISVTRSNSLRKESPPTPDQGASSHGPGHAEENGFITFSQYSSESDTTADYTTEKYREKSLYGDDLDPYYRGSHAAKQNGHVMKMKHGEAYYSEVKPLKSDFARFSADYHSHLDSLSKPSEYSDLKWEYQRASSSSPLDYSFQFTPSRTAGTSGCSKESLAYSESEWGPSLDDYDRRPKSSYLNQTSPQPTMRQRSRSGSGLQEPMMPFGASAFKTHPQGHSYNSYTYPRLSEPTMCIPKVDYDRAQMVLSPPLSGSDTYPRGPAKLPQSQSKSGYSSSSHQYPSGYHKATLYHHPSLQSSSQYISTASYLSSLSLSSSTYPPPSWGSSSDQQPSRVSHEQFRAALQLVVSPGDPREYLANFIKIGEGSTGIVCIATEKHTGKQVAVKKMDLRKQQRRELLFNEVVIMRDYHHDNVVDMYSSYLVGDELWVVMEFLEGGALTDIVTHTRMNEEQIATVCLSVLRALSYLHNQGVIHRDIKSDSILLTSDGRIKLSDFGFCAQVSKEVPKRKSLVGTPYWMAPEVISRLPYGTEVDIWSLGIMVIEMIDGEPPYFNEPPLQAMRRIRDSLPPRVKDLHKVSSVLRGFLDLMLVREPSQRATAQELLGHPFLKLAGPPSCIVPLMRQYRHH
Description: as §1

PFCDPK1(P.falciparum) = PFCDPK1(P.falciparum) (Plasmodium falciparum (isolate 3D7), UniProt P62344); settings: read-out: percent of control
Description: as §1

PKN1 = PKN1 (Homo sapiens (Human), UniProt Q16512); settings: read-out: percent of control
Description: as §1

PRKCD = PRKCD (Homo sapiens (Human), UniProt Q05655); settings: read-out: percent of control
Description: as §1

RET = RET (Homo sapiens (Human), UniProt P07949); settings: read-out: percent of control
Chain of RET (P07949 29-1114): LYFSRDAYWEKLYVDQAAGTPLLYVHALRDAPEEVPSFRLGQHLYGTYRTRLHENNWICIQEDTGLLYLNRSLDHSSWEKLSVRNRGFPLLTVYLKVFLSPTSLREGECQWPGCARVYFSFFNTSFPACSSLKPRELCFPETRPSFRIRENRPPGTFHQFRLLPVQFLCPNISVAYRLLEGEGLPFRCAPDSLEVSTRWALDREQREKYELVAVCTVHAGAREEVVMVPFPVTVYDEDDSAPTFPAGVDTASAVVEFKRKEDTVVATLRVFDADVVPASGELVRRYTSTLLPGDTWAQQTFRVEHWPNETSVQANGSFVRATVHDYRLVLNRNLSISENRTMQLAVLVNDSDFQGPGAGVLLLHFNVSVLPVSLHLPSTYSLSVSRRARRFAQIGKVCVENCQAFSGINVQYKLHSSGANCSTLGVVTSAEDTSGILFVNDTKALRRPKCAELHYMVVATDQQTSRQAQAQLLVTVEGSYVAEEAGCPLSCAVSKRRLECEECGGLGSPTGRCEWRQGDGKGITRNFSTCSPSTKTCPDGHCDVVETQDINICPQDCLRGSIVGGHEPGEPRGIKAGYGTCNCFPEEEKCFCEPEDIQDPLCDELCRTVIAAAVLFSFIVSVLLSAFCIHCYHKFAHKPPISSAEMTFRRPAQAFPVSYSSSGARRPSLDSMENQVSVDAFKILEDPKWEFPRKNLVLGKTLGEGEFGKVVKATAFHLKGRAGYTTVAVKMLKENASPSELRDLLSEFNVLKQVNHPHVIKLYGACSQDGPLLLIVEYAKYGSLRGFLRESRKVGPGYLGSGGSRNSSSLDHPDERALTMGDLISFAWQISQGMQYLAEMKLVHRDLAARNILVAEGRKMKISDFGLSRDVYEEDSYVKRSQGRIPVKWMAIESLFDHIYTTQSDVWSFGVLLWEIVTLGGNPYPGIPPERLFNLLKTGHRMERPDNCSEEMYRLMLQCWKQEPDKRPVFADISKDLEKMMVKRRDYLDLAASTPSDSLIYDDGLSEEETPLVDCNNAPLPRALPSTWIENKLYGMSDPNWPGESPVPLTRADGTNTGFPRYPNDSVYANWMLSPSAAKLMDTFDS
Description: as §1

RET (M918T) = RET (M918T) (Homo sapiens (Human), UniProt P07949, M918T); settings: read-out: percent of control
Description: as §1

RIPK4 = RIPK4 (Homo sapiens (Human), UniProt P57078); settings: read-out: percent of control
Description: as §1

[2] = molecular target: RSK1 (Kin.Dom.1-N-terminal) (Homo sapiens (Human), UniProt Q15418); settings: read-out: percent of control
Chain of RSK1 (Kin.Dom.1-N-terminal) (Q15418 62-321): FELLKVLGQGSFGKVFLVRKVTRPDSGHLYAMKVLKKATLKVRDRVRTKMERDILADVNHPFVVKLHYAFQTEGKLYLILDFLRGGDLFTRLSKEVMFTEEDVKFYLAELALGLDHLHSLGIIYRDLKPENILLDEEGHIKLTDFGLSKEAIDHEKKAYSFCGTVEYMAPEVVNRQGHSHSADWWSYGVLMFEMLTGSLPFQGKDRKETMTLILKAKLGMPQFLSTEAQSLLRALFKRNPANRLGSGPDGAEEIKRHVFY
Description: as §1

SBK1 = SBK1 (Homo sapiens (Human), UniProt Q52WX2); settings: read-out: percent of control
Chain of SBK1 (Q52WX2 whole entry): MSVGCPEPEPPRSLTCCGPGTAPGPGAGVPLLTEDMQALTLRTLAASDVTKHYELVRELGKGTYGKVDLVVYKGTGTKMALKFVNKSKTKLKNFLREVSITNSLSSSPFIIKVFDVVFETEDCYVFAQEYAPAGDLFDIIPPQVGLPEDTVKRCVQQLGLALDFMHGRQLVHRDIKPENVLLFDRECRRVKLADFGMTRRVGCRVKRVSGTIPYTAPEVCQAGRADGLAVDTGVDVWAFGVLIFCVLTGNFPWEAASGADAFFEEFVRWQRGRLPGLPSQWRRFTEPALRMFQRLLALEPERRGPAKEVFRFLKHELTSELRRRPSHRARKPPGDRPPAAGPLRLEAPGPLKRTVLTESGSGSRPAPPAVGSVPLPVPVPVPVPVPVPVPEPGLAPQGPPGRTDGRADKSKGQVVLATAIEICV
Description: as §1

TAK1 = TAK1 (Homo sapiens (Human), UniProt O43318); settings: read-out: percent of control
Description: as §1

TRPM6 = TRPM6 (Homo sapiens (Human), UniProt Q9BX84); settings: read-out: percent of control
Description: as §1

TSSK1B = TSSK1B (Homo sapiens (Human), UniProt Q9BXA7); settings: read-out: percent of control
Chain of TSSK1B (Q9BXA7 whole entry): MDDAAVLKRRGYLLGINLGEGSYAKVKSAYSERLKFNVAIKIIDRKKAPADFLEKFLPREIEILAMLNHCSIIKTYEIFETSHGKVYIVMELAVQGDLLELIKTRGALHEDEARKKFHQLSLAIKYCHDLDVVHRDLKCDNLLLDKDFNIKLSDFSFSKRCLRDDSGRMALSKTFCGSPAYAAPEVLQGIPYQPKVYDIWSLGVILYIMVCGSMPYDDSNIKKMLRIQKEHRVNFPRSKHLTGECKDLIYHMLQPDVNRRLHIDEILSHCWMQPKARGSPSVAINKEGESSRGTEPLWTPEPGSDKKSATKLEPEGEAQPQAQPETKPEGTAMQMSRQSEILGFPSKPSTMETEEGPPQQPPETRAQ
Description: as §1

WEE2 = WEE2 (Homo sapiens (Human), UniProt P0C1S8); settings: read-out: percent of control
Description: as §1

YANK2 = YANK2 (Homo sapiens (Human), UniProt Q9NY57); settings: read-out: percent of control
Description: as §1

Row | Compound | remaining binding at 1 µM (ABL1-nonphosphorylated) | remaining binding at 1 µM (ALK(C1156Y)) | remaining binding at 1 µM (BIKE) | remaining binding at 1 µM (BRAF) | remaining binding at 1 µM (CAMKK1) | remaining binding at 1 µM (CDK11) | remaining binding at 1 µM (CLK4) | remaining binding at 1 µM (CSNK1A1) | remaining binding at 1 µM (CSNK1E) | remaining binding at 1 µM (CSNK1G1) | remaining binding at 1 µM (CSNK1G3) | remaining binding at 1 µM (CTK) | remaining binding at 1 µM (DDR1) | remaining binding at 1 µM (DYRKIA) | percent of control (EGFR(L747-T751del,Sins)) | remaining binding at 1 µM (EIF2AK1) | remaining binding at 1 µM (EPHB4) | remaining binding at 1 µM (ERN1) | remaining binding at 1 µM (FGFR4) | remaining binding at 1 µM [1] | further results
1 | CCN1CCN(Cc2cc(NC(=O)c3ccc(C)c(-c4ccc5nc(NC(=O)C6CC6)cn5n4)c3)cc(C(F)(F)F)c2)CC1 [Compound I-2, 3-(2-(cyclopropanecarboxamido)imidazo[1,2-b]pyridazin-6-yl)-N-(3-((4-ethylpiperazin-1-yl)methyl)-5-(trifluoromethyl)phenyl)-4-methylbenzamide] | 0% | 30% | 96% | 11% | 12% | 0.6% | 11% | 73% | 86% | 100% | 96% | 38% | 0.05% | 92% | 29% | 100% | 1.3% | 84% | 100% | 0% | selectivity for JAK3 over JAK2, JAK1, and TYK2 ([1]; KINOMEscan, 1 μM): more selective for JAK3 over JAK2, JAK1, and TYK2; remaining binding at 1 µM (MAP4K3): 3.4%; remaining binding at 1 µM (MET(Y1235D)): 8.7%; remaining binding at 1 µM (OSR1): 99%; remaining binding at 1 µM (PAK3): 82%; remaining binding at 1 µM (PAK7): 73%; remaining binding at 1 µM (PFCDPK1(P.falciparum)): 84%; remaining binding at 1 µM (PKN1): 98%; remaining binding at 1 µM (PRKCD): 40%; remaining binding at 1 µM (RET): 0%; remaining binding at 1 µM (RET (M918T)): 0.05%; remaining binding at 1 µM (RIPK4): 98%; remaining binding at 1 µM [2]: 97%; remaining binding at 1 µM (SBK1): 99%; remaining binding at 1 µM (TAK1): 1.1%; remaining binding at 1 µM (TRPM6): 93%; remaining binding at 1 µM (TSSK1B): 96%; remaining binding at 1 µM (WEE2): 100%; remaining binding at 1 µM (YANK2): 91%
2 | CCN1CCN(Cc2cc(NC(=O)c3ccc(C)c(-c4ccc5nc(NC(=O)C6CC6)cn5c4)c3)cc(C(F)(F)F)c2)CC1 [Compound I-6, 3-(2-(cyclopropanecarboxamido)imidazo[1,2-a]pyridin-6-yl)-N-(3-((4-ethylpiperazin-1-yl)methyl)-5-(trifluoromethyl)phenyl)-4-methylbenzamide] | 0.1% | 29% | 100% | 21% | 53% | 2.7% | 28% | 100% | 93% | 96% | 92% | 31% | 0.15% | 100% | 12% | 92% | 0% | 78% | 100% | 0% | remaining binding at 1 µM (MAP4K3): 19%; remaining binding at 1 µM (MET(Y1235D)): 8.9%; remaining binding at 1 µM (OSR1): 100%; remaining binding at 1 µM (PAK3): 66%; remaining binding at 1 µM (PAK7): 98%; remaining binding at 1 µM (PFCDPK1(P.falciparum)): 88%; remaining binding at 1 µM (PKN1): 98%; remaining binding at 1 µM (PRKCD): 48%; remaining binding at 1 µM (RET): 0%; remaining binding at 1 µM (RET (M918T)): 0%; remaining binding at 1 µM (RIPK4): 100%; remaining binding at 1 µM [2]: 100%; remaining binding at 1 µM (SBK1): 97%; remaining binding at 1 µM (TAK1): 2.7%; remaining binding at 1 µM (TRPM6): 78%; remaining binding at 1 µM (TSSK1B): 76%; remaining binding at 1 µM (WEE2): 95%; remaining binding at 1 µM (YANK2): 100%
